In article PMC11557892, “Structural basis of MICAL autoinhibition” (Nature Communications, 2024):
Blank lines part the entries; values can stand above or below the molecule they belong to.

Experiments:
human MICAL1 = molecular target: T1, human MICAL1 (Homo sapiens, UniProt Q8TDZ2); assay: cryo-EM structure, […] Å; assay type: binding; conditions: oxidized state, planar isoalloxazine ring; co-purified, non-covalent; deep cavity of MO domain, stacking with Trp400; autoinhibited full-length enzyme
T1 construct: full length M1-G1067, C-terminal 3C-His8 tag, baculovirus-infected Sf9 cells
T1 sequence (Q8TDZ2 1-1067): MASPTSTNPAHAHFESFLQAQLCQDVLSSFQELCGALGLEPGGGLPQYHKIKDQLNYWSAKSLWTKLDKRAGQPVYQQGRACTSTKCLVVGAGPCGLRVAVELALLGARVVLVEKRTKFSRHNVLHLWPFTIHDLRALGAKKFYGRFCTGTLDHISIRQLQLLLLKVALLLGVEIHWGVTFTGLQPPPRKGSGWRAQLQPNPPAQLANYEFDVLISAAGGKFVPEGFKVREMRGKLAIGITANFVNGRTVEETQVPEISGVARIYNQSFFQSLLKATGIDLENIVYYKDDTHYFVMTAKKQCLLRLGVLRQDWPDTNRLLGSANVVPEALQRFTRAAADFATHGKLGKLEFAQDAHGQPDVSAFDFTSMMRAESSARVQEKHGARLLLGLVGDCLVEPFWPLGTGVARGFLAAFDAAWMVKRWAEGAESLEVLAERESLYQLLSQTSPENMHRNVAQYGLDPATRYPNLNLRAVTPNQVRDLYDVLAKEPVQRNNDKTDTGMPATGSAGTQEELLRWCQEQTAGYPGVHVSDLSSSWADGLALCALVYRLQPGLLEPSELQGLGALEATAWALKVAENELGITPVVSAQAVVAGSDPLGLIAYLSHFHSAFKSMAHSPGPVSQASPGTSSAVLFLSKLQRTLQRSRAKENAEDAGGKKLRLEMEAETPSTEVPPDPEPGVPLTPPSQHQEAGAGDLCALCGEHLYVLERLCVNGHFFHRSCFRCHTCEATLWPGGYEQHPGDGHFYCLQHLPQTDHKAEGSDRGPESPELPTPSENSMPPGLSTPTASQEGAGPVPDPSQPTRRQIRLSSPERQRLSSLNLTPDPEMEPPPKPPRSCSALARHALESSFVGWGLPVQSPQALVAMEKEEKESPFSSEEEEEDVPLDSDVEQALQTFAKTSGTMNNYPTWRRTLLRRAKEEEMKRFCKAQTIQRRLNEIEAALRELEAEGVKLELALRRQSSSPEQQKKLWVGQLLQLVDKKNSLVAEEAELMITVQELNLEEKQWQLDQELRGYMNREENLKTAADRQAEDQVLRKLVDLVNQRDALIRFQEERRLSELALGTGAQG

[1] = molecular target: T2, human MICAL1^ΔCC (residues M1-A917) (human, UniProt Q8TDZ2 1-917); assay: BLI; biotinylated CC domain immobilised (8.8 µg/ml) on Octet SAX biosensors, MO or MICAL1^ΔCC as analyte; 20 mM HEPES pH 7.4, 150 mM NaCl, 2 mM DTT, 2 mM MgCl2, 0.05% Tween 20, 20 °C; duplicates; conditions: both partners purified
T2 construct: human MICAL1 lacking the CC domain, residues M1-A917 (MO, L1, CH, L2, LIM, L3); also called MICAL^ΔCC; source: baculovirus-infected Sf9 cells, purified (HisTrap FF, Superdex 200)
T2 sequence (looked up): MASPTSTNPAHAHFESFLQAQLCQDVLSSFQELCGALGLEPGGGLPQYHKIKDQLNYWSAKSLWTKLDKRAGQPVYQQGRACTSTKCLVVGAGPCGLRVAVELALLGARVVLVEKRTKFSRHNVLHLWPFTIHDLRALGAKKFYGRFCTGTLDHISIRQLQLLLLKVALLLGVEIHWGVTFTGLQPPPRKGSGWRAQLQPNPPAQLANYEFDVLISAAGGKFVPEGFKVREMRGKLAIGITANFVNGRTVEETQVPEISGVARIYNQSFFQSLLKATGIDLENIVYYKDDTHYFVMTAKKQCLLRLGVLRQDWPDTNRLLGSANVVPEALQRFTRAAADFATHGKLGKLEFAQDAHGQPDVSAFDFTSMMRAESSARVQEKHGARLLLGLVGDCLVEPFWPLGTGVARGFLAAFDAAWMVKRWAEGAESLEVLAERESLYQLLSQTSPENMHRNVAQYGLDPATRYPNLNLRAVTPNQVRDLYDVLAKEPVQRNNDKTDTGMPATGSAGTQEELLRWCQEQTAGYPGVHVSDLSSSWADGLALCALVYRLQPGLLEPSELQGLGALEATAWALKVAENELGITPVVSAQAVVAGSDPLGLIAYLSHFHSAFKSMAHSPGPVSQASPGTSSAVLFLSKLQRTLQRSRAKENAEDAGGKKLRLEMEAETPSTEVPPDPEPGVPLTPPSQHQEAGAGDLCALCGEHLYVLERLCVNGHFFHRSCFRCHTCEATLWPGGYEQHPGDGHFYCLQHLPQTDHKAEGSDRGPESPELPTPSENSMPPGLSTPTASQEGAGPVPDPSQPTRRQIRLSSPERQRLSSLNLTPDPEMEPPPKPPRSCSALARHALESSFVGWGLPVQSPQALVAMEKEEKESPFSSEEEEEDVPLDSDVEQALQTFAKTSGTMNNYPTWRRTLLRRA

Molecule: Cc1cc2nc3c(=O)[nH]c(=O)nc-3n(C[C@H](O)[C@H](O)[C@H](O)COP(=O)(O)OP(=O)(O)OC[C@H]3O[C@@H](n4cnc5c(N)ncnc54)[C@H](O)[C@@H]3O)c2cc1C [FAD]
cryo-EM structure, 3.1 Å (human MICAL1): A deep cavity located between these subdomains is partially occupied by the FAD cofactor

Kd [1]: 580 ± 170 nM
B1: biotinylated human MICAL1^CC (residues K918-G1067) (domain or fragment, UniProt Q8TDZ2 918-1067, looked up)
chain: KEEEMKRFCKAQTIQRRLNEIEAALRELEAEGVKLELALRRQSSSPEQQKKLWVGQLLQLVDKKNSLVAEEAELMITVQELNLEEKQWQLDQELRGYMNREENLKTAADRQAEDQVLRKLVDLVNQRDALIRFQEERRLSELALGTGAQG
modifications: biotin on the Avi tag (biotinylated in vivo)
notes: human MICAL1 coiled-coil (CC) domain, residues K918-G1067; The BLI construct; also called CC domain; coiled-coil domain; source: E. coli BL21(DE3)BirA, biotinylated in vivo, purified (HisTrap Talon, Superdex 200); not shown: Avi tag, C-terminal, kept
